Values joined by “and” are separate entries in the source; they are usually repeats but may differ in a detail not shown here. Identical values can stand only once. Inconclusive results and toxic doses are left out.
System: L1210 leukemia ip in BDF1 mice, survival T/C
Assay: NCI In Vivo Anticancer Drug Screen. Data for tumor model L1210 Leukemia (intraperitoneal) in B6D2F1 (BDF1) mice
Conditions: endpoint: mean survival time, higher = longer survival
Method in brief: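 Antitumor effect is assessed in tumor-bearing animals. Survival in the compound arm is compared with a vehicle-dosed control arm and expressed as their quotient.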

[1] = dose: 100.0 mg/kg/injection, schedule: Q01DX001 (ip), vehicle: Klucel (hydroxypropylcellulose) (HPC)
[2] = dose: 100.0 mg/kg/injection, schedule: Q04DX003 (ip), vehicle: Klucel (hydroxypropylcellulose) (HPC)
[3] = dose: 200.0 mg/kg/injection, schedule: Q01DX001 (ip), vehicle: Klucel (hydroxypropylcellulose) (HPC)
[4] = dose: 200.0 mg/kg/injection, schedule: Q04DX003 (ip), vehicle: Klucel (hydroxypropylcellulose) (HPC)
[5] = dose: 400.0 mg/kg/injection, schedule: Q01DX001 (ip), vehicle: Klucel (hydroxypropylcellulose) (HPC)
[6] = dose: 400.0 mg/kg/injection, schedule: Q04DX003 (ip), vehicle: Klucel (hydroxypropylcellulose) (HPC)
[7] = dose: 200.0 mg/kg/injection, schedule: Q01DX009 (ip), vehicle: saline with Tween-80
[8] = dose: 100.0 mg/kg/injection, schedule: Q01DX009 (ip), vehicle: saline
[9] = dose: 200.0 mg/kg/injection, schedule: Q01DX009 (ip), vehicle: saline
[10] = dose: 12.5 mg/kg/injection, schedule: Q04DX003 (ip), vehicle: saline with Tween-80
[11] = dose: 25.0 mg/kg/injection, schedule: Q04DX003 (ip), vehicle: saline with Tween-80
[12] = dose: 50.0 mg/kg/injection, schedule: Q04DX003 (ip), vehicle: saline with Tween-80
[13] = dose: 100.0 mg/kg/injection, schedule: Q04DX003 (ip), vehicle: saline with Tween-80
[14] = dose: 100.0 mg/kg/injection, schedule: Q01DX009 (ip), vehicle: other
[15] = dose: 200.0 mg/kg/injection, schedule: Q01DX009 (ip), vehicle: other
[16] = dose: 400.0 mg/kg/injection, schedule: Q01DX009 (ip), vehicle: other
[17] = dose: 50.0 mg/kg/injection, schedule: Q04DX003 (ip), vehicle: Klucel (hydroxypropylcellulose) (HPC)
[18] = dose: 200.0 mg/kg/injection, schedule: Q04DX003 (ip), vehicle: saline with Tween-80
[19] = dose: 400.0 mg/kg/injection, schedule: Q04DX003 (ip), vehicle: saline with Tween-80

CC(=O)NC1=C(c2ccccc2)C(=O)c2ccccc21 was tested, and the T/C (dose: 45.0 mg/kg/injection, schedule: Q01DX001 (ip), vehicle: Klucel (hydroxypropylcellulose) (HPC)) was 107 % of control, the T/C (dose: 65.0 mg/kg/injection, schedule: Q01DX001 (ip), vehicle: Klucel (hydroxypropylcellulose) (HPC)) was 96 % of control and the T/C [1] was 100 % of control and 104 % of control. The T/C [2] was 107 % of control, the T/C (dose: 150.0 mg/kg/injection, schedule: Q01DX001 (ip), vehicle: Klucel (hydroxypropylcellulose) (HPC)) was 96 % of control and the T/C [3] was 96 % of control and 117 % of control and 91 % of control. The T/C [4] was 107 % of control, the T/C (dose: 300.0 mg/kg/injection, schedule: Q01DX001 (ip), vehicle: Klucel (hydroxypropylcellulose) (HPC)) was 104 % of control and the T/C [5] was 97 % of control and 102 % of control and 103 % of control. For the same molecule, the T/C [6] was 97 % of control.

COC(=O)c1ccccc1NC(=O)Nc1ccccc1C(F)(F)F was tested, and the T/C (dose: 100.0 mg/kg/injection, schedule: Q01DX009 (ip), vehicle: saline with Tween-80) was 89 % of control, the T/C [7] was 89 % of control and the T/C (dose: 400.0 mg/kg/injection, schedule: Q01DX009 (ip), vehicle: saline with Tween-80) was 86 % of control.

CC(C)OP(=O)(CP(=O)(OC(C)C)OC(C)C)OC(C)C was tested, and the T/C [8] was 95 % of control and the T/C [9] was 97 % of control.

In the case of C=C(C)C1(CCCCC)C(=O)NC(=S)NC1=O, the T/C (dose: 75.0 mg/kg/injection, schedule: Q01DX001 (ip), vehicle: saline) is reported as 100 % of control, the T/C (dose: 150.0 mg/kg/injection, schedule: Q01DX001 (ip), vehicle: saline) is reported as 102 % of control and the T/C (dose: 300.0 mg/kg/injection, schedule: Q01DX001 (ip), vehicle: saline) is reported as 95 % of control.

With N#CC(C#N)=Cc1ccnc2ccccc12 the T/C (dose: 10.0 mg/kg/injection, schedule: Q01DX009 (ip), vehicle: saline with Tween-80) was 101 % of control, the T/C [10] was 101 % of control and the T/C (dose: 20.0 mg/kg/injection, schedule: Q01DX009 (ip), vehicle: saline with Tween-80) was 101 % of control. For the same molecule, the T/C [11] was 104 % of control, the T/C (dose: 40.0 mg/kg/injection, schedule: Q01DX009 (ip), vehicle: saline with Tween-80) was 101 % of control and the T/C [12] was 95 % of control. The T/C [13] was 105 % of control.

For CCCCCCCCCCCCSC(=O)NCCC, the T/C [14] was 95 % of control, the T/C [15] was 90 % of control and the T/C [16] was 92 % of control.

With COC(=O)C12c3ccccc3C(c3ccccc31)c1c(N=O)ccc(NO)c12 the T/C (dose: 25.0 mg/kg/injection, schedule: Q04DX003 (ip), vehicle: Klucel (hydroxypropylcellulose) (HPC)) was 100 % of control, the T/C [17] was 97 % of control and the T/C [1] was 99 % of control. The T/C [2] was 94 % of control, the T/C [3] was 90 % of control and the T/C [4] was 102 % of control. The T/C [5] was 89 % of control and the T/C [6] was 105 % of control.

For O=c1ccn(CCCc2ccccc2)c(=O)[nH]1, the T/C (dose: 100.0 mg/kg/injection, schedule: Q01DX009 (ip), vehicle: Klucel (hydroxypropylcellulose) (HPC)) was 94 % of control, the T/C (dose: 200.0 mg/kg/injection, schedule: Q01DX009 (ip), vehicle: Klucel (hydroxypropylcellulose) (HPC)) was 109 % of control and the T/C (dose: 400.0 mg/kg/injection, schedule: Q01DX009 (ip), vehicle: Klucel (hydroxypropylcellulose) (HPC)) was 94 % of control.

For CC[S][Hg][Cl], the T/C (dose: 3.0 mg/kg/injection, schedule: Q01DX009 (ip), vehicle: saline with Tween-80) was 92 % of control, the T/C (dose: 6.0 mg/kg/injection, schedule: Q01DX009 (ip), vehicle: saline with Tween-80) was 101 % of control and the T/C [10] was 101 % of control.

With O=c1ccnc([Se])[nH]1 the T/C [10] was 99 % of control, the T/C [11] was 105 % of control and the T/C [12] was 101 % of control. The T/C [13] was 92 % of control, the T/C [18] was 111 % of control and the T/C [19] was 101 % of control.

In the case of CC(=O)OC1CC(n2cc(C)c(=O)[nH]c2=O)OC1CO (stereo not drawn), the T/C (dose: 100.0 mg/kg/injection, schedule: Q01DX005 (ip), vehicle: saline) is reported as 112 % of control and the T/C (dose: 200.0 mg/kg/injection, schedule: Q01DX005 (ip), vehicle: saline) is reported as 109 % of control.

In the case of CCCCC(CCC)(CCC)CCN, the T/C (dose: 2.0 mg/kg/injection, schedule: Q01DX001 (ip), vehicle: carboxymethylcellulose (CMC)) is reported as 98 % of control, the T/C (dose: 2.5 mg/kg/injection, schedule: Q01DX015 (ip), vehicle: carboxymethylcellulose (CMC)) is reported as 89 % of control and the T/C (dose: 4.0 mg/kg/injection, schedule: Q01DX001 (ip), vehicle: carboxymethylcellulose (CMC)) is reported as 103 % of control. For the same molecule, the T/C (dose: 5.0 mg/kg/injection, schedule: Q01DX015 (ip), vehicle: carboxymethylcellulose (CMC)) was 94 % of control, the T/C (dose: 8.0 mg/kg/injection, schedule: Q01DX001 (ip), vehicle: carboxymethylcellulose (CMC)) was 108 % of control and the T/C (dose: 10.0 mg/kg/injection, schedule: Q01DX015 (ip), vehicle: carboxymethylcellulose (CMC)) was 93 % of control. For the same molecule, the T/C (dose: 16.0 mg/kg/injection, schedule: Q01DX001 (ip), vehicle: carboxymethylcellulose (CMC)) was 90 % of control.

CCN(CC)C(=O)C1C2C=CC(CC2)C1C(=O)N(CC)CC (stereo not drawn) was tested, and the T/C (dose: 100.0 mg/kg/injection, schedule: Q04DX003 (ip), vehicle: saline) was 100 % of control, the T/C (dose: 200.0 mg/kg/injection, schedule: Q04DX003 (ip), vehicle: saline) was 96 % of control and the T/C (dose: 400.0 mg/kg/injection, schedule: Q04DX003 (ip), vehicle: saline) was 96 % of control.

For O=NN(CCCl)C(=O)Nc1c[nH]c2ccccc12, the T/C (dose: 118.0 mg/kg/injection, schedule: Q01DX009 (ip), vehicle: carboxymethylcellulose (CMC)) was 116 % of control, the T/C (dose: 177.0 mg/kg/injection, schedule: Q01DX009 (ip), vehicle: carboxymethylcellulose (CMC)) was 116 % of control and the T/C (dose: 266.0 mg/kg/injection, schedule: Q01DX009 (ip), vehicle: carboxymethylcellulose (CMC)) was 123 % of control. For the same molecule, the T/C (dose: 400.0 mg/kg/injection, schedule: Q01DX009 (ip), vehicle: carboxymethylcellulose (CMC)) was 124 % of control and the T/C (dose: 600.0 mg/kg/injection, schedule: Q01DX009 (ip), vehicle: carboxymethylcellulose (CMC)) was 156 % of control.

With O=[N+]([O-])c1ccc(Oc2ccccc2)c(S(=O)(=O)O)c1 the T/C [13] was 103 % of control, the T/C [18] was 94 % of control and the T/C [19] was 97 % of control.

In the case of CCCCCC(=O)O, the T/C [8] is reported as 100 % of control, the T/C [9] is reported as 98 % of control and the T/C (dose: 400.0 mg/kg/injection, schedule: Q01DX009 (ip), vehicle: saline) is reported as 89 % of control.

With C/C(=N/O)c1ccc(/C(C)=N/O)cc1 the T/C (dose: 75.0 mg/kg/injection, schedule: Q01DX009 (ip), vehicle: saline with Tween-80) was 104 % of control, the T/C [13] was 95 % of control and the T/C (dose: 150.0 mg/kg/injection, schedule: Q01DX009 (ip), vehicle: saline with Tween-80) was 107 % of control. For the same molecule, the T/C [7] was 107 % of control, the T/C [18] was 96 % of control and the T/C [19] was 95 % of control.

In the case of O=C(O)c1cccc([N+](=O)[O-])c1[N+](=O)[O-], the T/C [17] is reported as 94 % of control, the T/C (dose: 100.0 mg/kg/injection, schedule: Q01DX001 (ip), vehicle: carboxymethylcellulose (CMC)) is reported as 95 % of control and the T/C [2] is reported as 92 % of control. For the same molecule, the T/C (dose: 200.0 mg/kg/injection, schedule: Q01DX001 (ip), vehicle: carboxymethylcellulose (CMC)) was 93 % of control, the T/C [4] was 103 % of control and the T/C (dose: 400.0 mg/kg/injection, schedule: Q01DX001 (ip), vehicle: carboxymethylcellulose (CMC)) was 93 % of control. For the same molecule, the T/C [6] was 92 % of control.

In the case of COc1cc([N+](=O)[O-])ccc1C, the T/C [14] is reported as 111 % of control, the T/C (dose: 100.0 mg/kg/injection, schedule: Q04DX003 (ip), vehicle: other) is reported as 97 % of control and the T/C [15] is reported as 98 % of control. For the same molecule, the T/C (dose: 200.0 mg/kg/injection, schedule: Q04DX003 (ip), vehicle: other) was 90 % of control, the T/C [16] was 104 % of control and the T/C (dose: 400.0 mg/kg/injection, schedule: Q04DX003 (ip), vehicle: other) was 88 % of control.

Clc1ccc2c(NC3CCC(NC4CCCCC4)CC3)ccnc2c1 (stereo not drawn) was tested, and the T/C (dose: 7.0 mg/kg/injection, schedule: Q01DX Z (ip), vehicle: carboxymethylcellulose (CMC)) was 102 % of control, the T/C (dose: 10.0 mg/kg/injection, schedule: Q01DX Z (ip), vehicle: carboxymethylcellulose (CMC)) was 96 % of control and the T/C (dose: 16.0 mg/kg/injection, schedule: Q01DX Z (ip), vehicle: carboxymethylcellulose (CMC)) was 98 % of control.

From PubChem BioAssay AID248 (DTP/NCI, 2004)
